Laboratory results from ChEMBL document CHEMBL1129940, “Cytotoxicity of platinum (II) dinuclear complexes with 1-alkylthymine ligands against mouse sarcoma 180 cells” (J Med Chem, 1997).

Test system: CCRF S-180
Assay: In vitro inhibitory concentration against growth of mouse sarcoma 180 (S-180) cells
Type: functional, cell-based

Sequence: CISPLATIN
- IC50: 1.07 µM
